According to patent US20160009751A1, “C-19 HYDROXY PREGNENES” (LEO Pharma A/S, priority 2014, published 2016):

Key:
[1] = target: T1, recombinant glucocorticoid receptor (GR) (Homo sapiens, UniProt P04150); experiment: Glucocorticoid receptor (GR) competitive binding assay (PolarScreen, fluorescence polarization); conditions: competition with Fluormone GS1, 2 hours at room temperature; relative IC50; read-out: GR binding; Rel IC50
T1 sequence (P04150 1-777): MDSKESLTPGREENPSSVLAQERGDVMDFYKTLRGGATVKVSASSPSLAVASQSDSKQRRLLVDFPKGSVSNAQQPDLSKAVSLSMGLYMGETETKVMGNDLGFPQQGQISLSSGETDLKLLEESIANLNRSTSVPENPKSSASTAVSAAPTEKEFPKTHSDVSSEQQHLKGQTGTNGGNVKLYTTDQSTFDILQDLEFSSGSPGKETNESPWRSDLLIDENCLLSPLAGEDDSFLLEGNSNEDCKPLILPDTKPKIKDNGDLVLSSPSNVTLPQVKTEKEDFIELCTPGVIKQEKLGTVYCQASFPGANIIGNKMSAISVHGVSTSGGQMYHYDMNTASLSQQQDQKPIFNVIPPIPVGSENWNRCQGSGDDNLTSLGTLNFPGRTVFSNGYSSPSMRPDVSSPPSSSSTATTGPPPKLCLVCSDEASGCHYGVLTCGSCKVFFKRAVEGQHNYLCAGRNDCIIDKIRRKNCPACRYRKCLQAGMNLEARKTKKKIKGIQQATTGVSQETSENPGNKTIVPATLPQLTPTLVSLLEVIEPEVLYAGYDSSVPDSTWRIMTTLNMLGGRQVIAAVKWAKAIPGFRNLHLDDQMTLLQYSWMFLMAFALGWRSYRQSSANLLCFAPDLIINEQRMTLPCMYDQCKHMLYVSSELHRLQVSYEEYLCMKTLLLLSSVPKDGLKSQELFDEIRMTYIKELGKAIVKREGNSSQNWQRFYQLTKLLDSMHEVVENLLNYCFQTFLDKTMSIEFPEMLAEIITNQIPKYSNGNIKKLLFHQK
Description: Glucocorticoid receptor binding was determined by competitive receptor binding assay using the PolarScreen™ Glucocorticoid Receptor Competitor Assay Kit, Green (Life Technologies, catalogue number A15897) in a 384-well format according to the manufacturer's instructions. Briefly, serial dilutions of test and reference compounds were prepared in 384-well plates. Subsequently, the steroidal competitor Fluormone™ GS1 and recombinant glucocorticoid receptor (GR) were added to all wells and the plate was incubated for 2 hours at room temperature and protected from light. Finally, polarization values in each well were determined by reading the plate in an EnVision (PerkinElmer) device.

[2] = target: T2, mineralocorticoid receptor (MR) (Homo sapiens, UniProt P08235); experiment: Mineralocorticoid receptor (MR) antagonism assay (GeneBLAzer MR DA, beta-lactamase reporter); assay type: cell-based; conditions: 0.14 nM-1 uM test compound, 10 nM aldosterone; relative IC50; read-out: Mineral corticoid receptor (MR) antagonism; Rel IC50
T2 construct: UAS-driven beta-lactamase reporter
T2 sequence (P08235 726-984 limits assumed): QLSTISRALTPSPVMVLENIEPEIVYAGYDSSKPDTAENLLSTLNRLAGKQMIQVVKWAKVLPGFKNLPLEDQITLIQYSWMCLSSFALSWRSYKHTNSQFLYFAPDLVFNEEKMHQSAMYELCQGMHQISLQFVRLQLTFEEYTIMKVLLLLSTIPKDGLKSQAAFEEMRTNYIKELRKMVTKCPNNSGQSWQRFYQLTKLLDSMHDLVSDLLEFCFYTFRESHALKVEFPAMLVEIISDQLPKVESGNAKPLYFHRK
Description: Agonistic and antagonistic interaction with the mineralocorticoid receptor was determined using the GeneBLAzer® MR DA Assay Kit (Life Technologies, catalogue number K1409) in a 96-well format according to the manufacturer's instructions. For determination of MR agonistic effect, cells were incubated with 0.14 nM-1 uM of test compound; the MR agonist aldosterone was included as a positive control in the same concentration range. After 16 h incubation, assay substrate (LiveBLAzer™-FRET B/G) was added to all wells and cells were incubated for 2 h followed by fluorometric detection (409/447 nm excitation and emission wavelength, respectively) of substrate conversion by beta-lactamase.
After 0.5 h, 10 nM of the MR agonist aldosterone was added to all wells and cells were incubated for another 15.5 h. After that, assay substrate (LiveBLAzer™-FRET B/G) was added to all wells and cells were incubated for 2 h followed by fluorometric detection (409/447 nm excitation and emission wavelength, respectively) substrate conversion by beta lactamase.

[3] = tested on: Interleukin-12B (IL-12B) release from primary human monocytes (PBMC); experiment: Interleukin-12B (IL-12B) release from LPS-stimulated primary human monocytes (PBMC); assay type: cell-based; conditions: 100 ng/ml LPS for 18 h, ELISA, relative IC50, read-out: Interleukin-12B (IL-12B), Rel IC50
Source text: The assay was adopted from a previously reported method (Schäcke et al, Br 3 Pharmacol (2009); 158(4): 1088-103) and is based on PBMC isolated from human blood. Stimulation of these cells with lipopolysaccharide (LPS) induces—among many other processes—the synthesis and secretion of the cytokine IL-12B. Both steroidal (glucocorticoids) and non-steroidal glucocorticoid receptor agonists act anti-inflammatory—e.g. by preventing DNA-binding of inflammatory transcription factors like AP-1 or NFkB—resulting in decreased synthesis/secretion of IL12B.
For compound testing, frozen stocks of PBMC were thawed, seeded in 96-well plates (1.2E5 cells/well) and then incubated in RPMI-1640 culture medium with 100 ng/ml LPS for 18 h with or without test compounds (pre-incubation with reference/test compounds for 1 h before addition of LPS). Then, IL-12B concentration in the cell culture supernatants was detected by hIL-12B-specific ELISA (Quantikine® human IL-12 p40 Immunoassay, R&D Systems Cat #SP400).

| IC50 [2] [nM] | Compound | IC50 [1] [nM] | IC50 [3] [nM] |
| --- | --- | --- | --- |
| 137 | CCCCC(=O)O[C@]1(C(=O)CO)[C@@H](C)C[C@H]2[C@@H]3CCC4=CC(=O)C=C[C@]4(C)[C@@]3(F)[C@@H](O)C[C@@]21C [Bethamethasone valerate] | 7 | < 1 |
|  | CCC(=O)O[C@]1(C(=O)CCl)CC[C@H]2[C@@H]3C[C@@H](F)C4=CC(=O)CC[C@]4(CO)[C@H]3[C@@H](O)C[C@@]21C [Compound 2, (6R,8S,9S,10S,11S,13S,14S,17R)-17-(2-chloroacetyl)-6-fluoro-11-hydroxy-10-(hydroxymethyl)-13-methyl-3-oxo-2,3,6,7,8,9,10,11,12,13,14,15,16,17-tetradecahydro-1H-cyclopenta[a]phenanthren-17-yl propionate] | 40 | 31 |
| 171 | CCC(=O)O[C@]1(C(=O)CCl)[C@@H](C)C[C@H]2[C@@H]3CCC4=CC(=O)C=C[C@]4(C)[C@@]3(F)[C@@H](O)C[C@@]21C [Clobetasol propionate] | 6 | < 1 |

| Compound | IC50 [2] [nM] | IC50 [1] [nM] | IC50 [3] [nM] |
| --- | --- | --- | --- |
| CCC(=O)O[C@]1(C(=O)CCl)CC[C@H]2[C@@H]3CCC4=CC(=O)CC[C@]4(CO)[C@H]3[C@@H](O)C[C@@]21C [Compound 1, (8S,9S,10S,11S,13S,14S,17R)-17-(2-chloroacetyl)-11-hydroxy-10-(hydroxymethyl-13-methyl-3-oxo-2,3,6,7,8,9,10,11,12,13,14,15,16,17-tetradecahydro-1H-cyclopenta[a]phenanthren-17-yl propionate] | > 1000 | 25 | 36 |
